Assay results: patent publication US20240366555A1, “SELECTIVE MTORC2 INHIBITOR AND USES THEREOF” (ALIAD BIOPHARMA, priority 2021, published 2024)

What was measured:
[1] = system: Pten KO mice; assay: Y-type maze test in Pten KO mice; type: in vivo; conditions: 5 or 10 mg/kg intraperitoneally for 14 days, FIG. 1a
Experimental: As Pten KO mice, Ptenf/f_cre/cre KO mice or Ptenf/f_cre/++ Het mice (KD) were obtained by mating Pten floxed/floxed mice and CAMKII-cre mice. DMSO or athyriol was intraperitoneally injected at 5 or 10 mg/kg for 2 weeks from the age of mice of 6 weeks, and a behavioral test was performed in 7 days after administration. Pten floxed/floxed mice were used as littermates of the same age as a normal control group.
(§1) A Y-maze was performed in a Y-shaped structure maze made of black acrylic material in which an angle of each arm was 120°, and a light and a cam were installed on the ceiling, and it was checked that white mice entered each arm while the surroundings were covered with a curtain. Through this, short-term memory was analyzed. In order to adapt mice to the environment, they were acclimated to the experimental space for 30 minutes. The mice were placed at one end of the maze and allowed to move freely for 12 minutes. Accuracy was measured by dividing time into 8 minutes, 10 minutes and 12 minutes. When the four paws of the mice entered the entrance, it was considered as completely entered. The percentage of accuracy was calculated as the number of times which a mouse entered each maze without repetition. The number of times entering each of three different arms was divided by the total number of times entering arms-2 and converted into a percentage for datafication. […]

[2] = system: normal mice; assay: Y-type maze test in normal mice; type: in vivo; conditions: 5 mg/kg intraperitoneally, FIG. 14a
Experimental: as §1, with “repetition.” for “repetition. The number of times entering each of three different arms was divided by the total number of times entering arms-2 and converted into a percentage for datafication.”
In order to verify this possibility, the efficacy of athyriol on memory ability and sociability of normal animals was investigated. A vehicle (30% DMSO) or athyriol was intraperitoneally injected at a dose of 5 mg/kg into normal mice (n=10), and from the 7th day after administration, the memory ability was evaluated by the same method as the Y-type maze test of Experimental example 1-2, and the sociability was evaluated by the same method as the 3 chamber test of Experimental example 1-6.

[3] = system: CYFIP1-overexpressing hippocampal neurons; assay: Excessive dendritic arborization in CYFIP1-overexpressing primary hippocampal neurons; type: cell-based, rat
From the text: Neural stem cells were primarily cultured from the hippocampal vestigial region of white mouse E16 embryos, and CYFIP1, which was found as a gene causing autism spectrum disorder, was introduced by transfection and overexpressed. When the neural stem cells in which CYFIP1 was overexpressed were differentiated, the neurite length and branch number increased compared to the normal cell, the number of dendritic spine increased, and morphological changes such as an increase in rod-shaped dendritic spines with a size of 0.6 μm or more, which are larger than the normal size, were accompanied. Therefore, CYFIP1 overexpression was used as a culture cell model of autism.
By treating norathyriol to the differentiating neural stem cells exogenously overexpressing CYFIP1, the effect of norathyriol on excessive dendritic arborization generated by CYFIP1 overexpression was investigated. By immunofluorescent staining method using an antibody against pan-neurofilament and an antibody against PSD (post-synaptic density)-95, which was expressed in the post-synaptic dendrite of synapses, the neurite length and dendritic spine number were measured and quantified. In addition, by DAPI staining, the nuclei of the neural cells were visualized.
Hippocampus-derived neural progenitor cells were isolated from the forebrain of E16 mouse embryos. SD-rat gestational age 16-day mice (Orient Bio) were purchased and the mice were anesthetized with CO2 deeply, and then the embryos were taken out. The embryos were immersed in Ca^2+/Mg^2+-free HBSS (Invitrogen) and the forebrain was isolated using a sterile injection needle under a dissecting microscope. While changing HBSS, the forebrain was separated into the left and right hemispheres using a forcep, and meninges were peeled off, and then the hippocampal eminence was separated. After washing the separated and collected tissue with cold N2 culture medium twice, 37° C. N2 culture medium was added and cells were slowly and mechanically isolated using a pipette. As the pipette, a Pasteur pipette coated with 1% BSA was used after making the pipette narrow and soft in diameter by firing the tip. After waiting for 3 minutes to allow undissolved tissue or vascular cells to settle, the supernatant was carefully taken as dissolved cells. These tissues were collected and mechanically isolated with the pipette in Ca^2+/Mg^2+-free HBSS (Invitrogen) buffer. The cells were seeded at 19,000 cells/cm^2 in a 35 mm culture dish coated with 15 μg/ml poly-L-ornithine and 1 μg/ml fibronectin (Sigma), and cultured using a serum-free N2 medium (medium for proliferation) in which 10 ng/mL bFGF (Invitrogen) was added under a condition of 5% CO2. […]

Structure (SMILES)	short-term memory in Y-type maze test [1]	improvement of memory ability in Y-type maze test compared to vehicle control [2]	reduction of number of dendritic spines per unit neurite length ([3]; 50 nM and 100 nM, on average, FIG. 10b)	number of dendritic spines in primary branching neurites ([3]; FIG. 10b)	number of dendritic spines per cell ([3]; FIG. 10b)	number of dendritic spines per unit neurite length ([3]; from 10 nM, FIG. 10)
COc1cc(O)c2c(=O)c3cc(O)c(O)cc3oc2c1 [athyriol, 1,6,7-Trihydroxy-3-methoxy-9H-xanthen-9-on]	recovered almost to the level of the normal control group	≥ 25%	–	–	–	–
O=c1c2cc(O)c(O)cc2oc2cc(O)cc(O)c12 [norathyriol, 1,3,6,7-tetrahydroxy-9H-xanthen-9-one]	–	–	≤ 50%	reduced by norathyriol in a similar tendency	reduced by norathyriol in a similar tendency	decrease in the number of dendritic spines was observed
